How the values were obtained:
[1] = test system: Her2/neu growth factor receptors on SKBR-3 human mammary carcinoma cells; test: Live cell labeling with norbornene-modified trastuzumab and tetrazine-VT680, fluorescence microscopy; format: cell-based
Source text: Norbornene carboxylic acid ((1S,2S,4S)-bicyclo[2.2.1]hept-5-en-2-yl acetic acid) was stirred for three hours with 1.1 equivalents of disuccinimidyl carbonate in acetontrile using 1 equivalent of pyridine as base. After reaction, solvent and base were removed by rotary evaporation and the crude norbornene succinimidyl ester with N-hydroxysuccinimide side product was recovered. Commercially purchased humanized anti-HER2/neu antibody trastuzumab (Genentech, San Francisco, Calif.) in 0.1M sodium bicarbonate buffer (pH 8.2) was incubated for three hours at room temperature with a 5 molar excess of 5-(and-6)-carboxytetramethylrhodamine, succinimidyl ester (Invitrogen) and a 30 molar excess of crude norbornene succinimidyl ester. The antibody was then isolated and washed by centrifuge purification and stored in PBS buffer. Control antibody was modified in an identical manner but excluding the norbornene NHS.
SKBR-3 human mammary carcinoma cell lines were maintained in complete McCoy's medium. Cells were incubated at 37° C. with 200 nM modified trastuzumab for 30 minutes and then washed twice with 10% fetal bovine serum (FBS) in Hanks balanced salt solution (HBSS). Tetrazine labeling was performed by incubating the cells for 30 minutes at 37° C. in 10% FBS/HBSS containing 50 μM of tetrazine-VT680. Cells were then washed twice with 10% FBS/HBSS and imaged with by fluorescence microscopy.

[2] = test system: trans-cyclooctene bound to antibody; test: Kinetic measurements of tetrazine cycloaddition to surface-absorbed trans-cyclooctene modified antibody; format: physicochemical; settings: PBS at 37° C.; 375, 750 and 1000 nM tetrazine; slope of pseudo first order rate constants versus concentration
Protocol: trans-cyclooctene modified antibody was physically absorbed onto polystyrene by immersing the surfaces in a 0.1 mg/mL solution of antibody in PBS for 3 hours. After numerous washes with PBS, the surface was exposed to 750 nM tetrazine VT680 in PBS at 37° C. After 5 minutes, the tetrazine solution was removed and the surface washed 3 times with PBS. The fluorescence due to the VT680 dye was measured on a fluorescence plate reader (Tecan Safire 2) and corrected for background fluorescence. The surface was again exposed to the tetrazine solution and the entire process repeated at 10, 15, 30, and 60 minutes. The fluorescence measurements were plotted versus time, fitted to a first order exponential growth curve and the pseudo first order rate constant determined The entire experiment was repeated using two different concentrations of tetrazine (375 nM and 1000 nM) and the pseudo first order rate constants from all three experiments were plotted versus concentration, fitted to a straight line; the slope of the line was 6000±200 M−1sec−1 and was reported at the second order rate constant for the reaction between tetrazine VT680 and trans-cyclooctene bound to antibody.

[3] = test system: EGFR on A549 cells; test: Pretargeted live cell labeling with trans-cyclooctene cetuximab and tetrazine-VT680, confocal microscopy; format: cell-based, human
Protocol: The human lung adenocarcinoma epithelial cell line A549 was selected for all experiments due to its mid-level over-expression of EGFR. The cell line was maintained in a standard ATCC formulated F-12K media supplemented with 10% fetal bovine serum and 5% penicillin/streptomycin.
Cells were grown on break away glass chamber slides and washed six times after administering either imaging agent. A multichannel upright laser-scanning confocal microscope (FV1000; Olympus) was used to image live cells with a 60× water immersion objective lens. Image collection and fluorophore excitations with lasers at 488 nm (EGFP), 543 nm (AF555), and 633 nm (VT680) were done serially to avoid cross talk between channels. Data were acquired with Fluoview software (version 4.3; Olympus) and image stacks were processed and analyzed with ImageJ software (version 1.41, Bethesda Md.).
Direct labeling of the antibodies with AF555 was monitored in the red channel.

[4] = test system: PtK2 rat kidney cells; test: Live cell labeling and confocal imaging of trans-cyclooctene taxol with tetrazine probes; format: cell-based, rat kangaroo; settings: for staining of intracellular structures by confocal microscopy: 1 μM trans-cyclooctene taxol 1 hour 37° C., wash, then 1 μM tetrazine probe 20 minutes room temperature
Protocol: For live cell studies, PtK2 […] cells were incubated in cell media containing 1 μM trans-cyclooctene taxol for 1 hour at 37° C. After washing with media three times, the cells were exposed to media containing 1 μM tetrazine-BODIPY FL for 20 minutes at room temperature. The cells were then washed and imaged on a confocal microscope. […] Taxol® is known to bind the microtubular networks of cells and there have been several reports of fluorescent taxol derivatives that can be used to image microtubular networks (Evangelio et al., 1998, Cell Motil Cytoskeleton, 39, 73-90; Guy et al., 1996, Chem Biol, 3, 1021-31; Souto et al., 1995, Angew. Chem. Int. Ed., 34, 2710-2712). In addition to tubular structures, the perinuclear region was stained. This staining is due to nonspecific uptake of the taxol analog by intracellular membranes such as the endoplasmic reticulum and Golgi.

[5] = test system: tubulin; test: Tubulin polymerization assay in the absence of GTP (optical density at 350 nm); format: biochemical; settings: tubulin monomer, versus DMSO control
Source text: To test the activity of the trans-cyclooctene taxol analog, we tested for the well known ability of Taxol® to polymerize tubulin in the absence of GTP (Shelanski et al., 1973, Proc Natl Acad Sci USA, 70, 765-8; Schiff and Horwitz, 1981, Biochemistry, 20, 3247-52). Optical density measurements at 350 nm (FIG. 6B) were used to determine the degree of tubulin polymerization after exposure of tubulin monomer to Taxol®, trans-cyclooctene taxol, and a DMSO control. […] Taxol trans-cyclooctene induced tubule bundles could be visualized by subsequent staining with tetrazine fluorophore probes such as tetrazine-BODIPY FL yielding brightly fluorescent tubule structures that could be imaged by fluorescent microscopy (FIG. 6c).

Q: With “5-(4-(1,2,4,5-Tetrazin-3-yl)benzylamino)-5-oxopentanoic Acid [Example 3]” as the compound, how does the “labeling of cells in rhodamine and NIR fluorescence channels” value ([1]; 200 nM norbornene- and rhodamine-modified trastuzumab 30 minutes, then 50 μM tetrazine-VT680 30 minutes 37° C. in 10% FBS/HBSS) read?
A: Significant labeling, which colocalizes

Q: What about the “NIR labeling with control antibody” value ([1]; control antibody containing rhodamine but not norbornene) of the same compound?
A: no NIR labeling

Q: For “3-(p-Benzylamino)-tetrazine-VT680 Conjugate”, which “second order rate constant” value [2] is on record?
A: 6000 ± 200 M⁻¹ s⁻¹

Q: What about the “colocalization of NIR (VT680) signal with AF555-labeled antibody” value ([3]; A549 cells pretargeted with AF555-labeled trans-cyclooctene cetuximab, then tetrazine-VT680) of the same compound?
A: excellent colocalization of the AF555 and VT680 signals with little background fluorescence

Q: And the “NIR fluorescence in control experiments” value ([3]; unlabeled cetuximab and tetrazine-VT680, or trans-cyclooctene-cetuximab and unlabeled VT680)?
A: no NIR fluorescence

Q: And the “staining of intracellular structures by confocal microscopy” value (shortened to “staining of intracellular structures”) [4]?
A: showed intracellular structures reflecting microtubule networks

Q: And the “staining of intracellular structures” value ([4]; listed as sulfonated Vivo-Tag 680 tetrazine)?
A: very little staining and an absence of tubular structures

Q: With `CC(=O)O[C@H]1C(=O)[C@@]2(C)[C@H]([C@H](OC(=O)c3ccccc3)[C@]3(O)C[C@H](OC(=O)[C@H](O)[C@@H](NC(=O)c4ccccc4)c4ccccc4)C(C)=C1C3(C)C)[C@]1(OC(C)=O)CO[C@@H]1C[C@@H]2O` [Taxol®, paclitaxel, reference compound] as the compound, how does the “degree of tubulin polymerization (optical density at 350 nm)” value [5] read?
A: induced polymerization

Q: `CC(=O)OC1C(=O)C2(C)C(OC(=O)CCNC(=O)OC3CCC=CCCC3)CC3OCC3(OC(C)=O)C2C(OC(=O)c2ccccc2)C2(O)CC(OC(=O)C(O)C(NC(=O)c3ccccc3)c3ccccc3)C(C)=C1C2(C)C` (stereo not drawn) [trans-cyclooctene taxol] was tested. Which “staining of intracellular structures” value [4] did it give?
A: tubular structures were clearly stained

Q: And the “degree of tubulin polymerization (optical density at 350 nm)” value [5]?
A: induced polymerization

Q: `Cc1cc(C)n2c1C=C1C=CC(CCC(=O)NCc3ccc(-c4nncnn4)cc3)=[N+]1[B-]2(F)F` [tetrazine-BODIPY FL] was tested. Which “staining of intracellular structures” value [4] did it give?
A: tubular structures were clearly stained

Q: And the “fluorescent background in control experiments” value ([4]; tetrazine-BODIPY FL alone or with unmodified taxol)?
A: minimal fluorescent background
